The test deals with CXCR4 (Homo sapiens (Human), UniProt P61073). The experiment in a line: Functional calcium mobilization assay (SDF-1α induced). The class given is cell-based. The following applies: for inhibition at 1 µM: CCRF-CEM, read-out: % inhibition at 1 μM; for IC50: CEM cells, SDF-1α challenge at EC80-EC90, read-out: Ca Flux IC50. The procedure: Functional modulation of CXCR4 was determined by calcium mobilization assay using leukemic lymphoid CEM cells, which naturally express high levels of CXCR4. Generally, the assay is carried out as follows: Cells are grown in vitro to confluency. On the day of the assay, cells are removed from the incubator, culture medium removed and replaced with a calcium sensitive dye (Calcium3 assay kit; Molecular Devices, Sunnyvale, Calif.). The cells are allowed to dye load for 45-60 min at 37° C. in the cell culture incubator and then allowed to equilibrate to room temperature for no more than 15 min before assay.
CXCR4, sequence (P61073 whole entry): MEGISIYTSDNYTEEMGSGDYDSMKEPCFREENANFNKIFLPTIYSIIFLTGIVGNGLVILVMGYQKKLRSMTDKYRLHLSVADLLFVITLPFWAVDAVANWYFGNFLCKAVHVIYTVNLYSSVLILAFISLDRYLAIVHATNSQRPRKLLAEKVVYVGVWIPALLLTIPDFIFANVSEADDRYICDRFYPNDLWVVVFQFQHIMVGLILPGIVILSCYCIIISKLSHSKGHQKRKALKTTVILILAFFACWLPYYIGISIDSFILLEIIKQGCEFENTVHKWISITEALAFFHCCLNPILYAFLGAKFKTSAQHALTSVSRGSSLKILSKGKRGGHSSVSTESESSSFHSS
Compound plates were generated containing up to 3% dimethyl sulfoxide in media kept at room temperature. Test compounds were added to the cells at a 1:3 dilution, and calcium mobilization was measured using a Flex Station fluorescence imager (Molecular Devices). This first read was used to determine direct agonist activation of the CXCR4 receptor by the test compounds. […] Full dose response curves were generated daily for SDF-1a to calculate IC50 concentrations. The IC50 values are reported. In cases, where one was not determined, a percent inhibition at the 1 μM concentration was extrapolated.
Functional calcium mobilization assay was conducted as described in Example 27.
In general terms: A change in cytosolic calcium serves as a functional read-out for many receptors and channels.

What is called inhibition is the relative decrease from the control value, in per cent. Take `c1cnc2c(c1)CCC[C@@H]2NCc1cc2c(cn1)[nH]c1ccccc12`: the inhibition at 1 µM turned out to be 39%.

As to `c1cnc2c(c1)CCCC2N(CCC1CCNCC1)Cc1nccc2c1[nH]c1ccccc12` (centres unmarked), the inhibition at 1 µM amounted to 55%. Same read-out and setting: with `c1cnc2c(c1)CCC[C@@H]2N(Cc1ccc(N2CCNCC2)cc1)Cc1nccc2c1[nH]c1ccccc12` the figure was 0%. The term IC50 denotes the concentration needed to halve the response being measured. `NCCCCN(Cc1nccc2c3ccccc3n(CCO)c12)[C@H]1CCCc2cccnc21`: the IC50 was determined as 11 nM.

On to `NCCCN(Cc1nccc2c1[nH]c1ccccc12)C1CCCc2cccnc21` (centres unmarked), for which the inhibition at 1 µM came to 0%. Same read-out and setting: under `CCN(CC)CCCCN(Cc1nccc2c1[nH]c1ccccc12)C1CCCc2cccnc21` (centres unmarked) stands 4%.

With `NCCCCN(Cc1nccc2c3ccccc3n(CC3CC3)c12)[C@H]1CCCc2cccnc21`, the IC50 worked out at 4 nM. For `c1cnc2c(c1)CCCC2N(CCCCN(CC1CC1)CC1CC1)Cc1nccc2c1[nH]c1ccccc12` (centres unmarked), the inhibition at 1 µM was determined as 0%. For the molecule `CCN(Cc1nccc2c3ccccc3n(CCCN)c12)[C@H]1CCCc2cccnc21`, the IC50 was 997 nM. Turning to `NCCCCN(Cc1cn(Cc2ccccc2)nn1)C1CCCc2cccnc21` (centres unmarked), the inhibition at 1 µM is 45%. With `NC(=O)Cn1c2ccccc2c2ccnc(CN(CCCN3CCNCC3)[C@H]3CCCc4cccnc43)c21`, the IC50 was 9 nM. On the same count and under the same terms, with `CC(=O)NCCCCN(Cc1nccc2c1[nH]c1ccccc12)C1CCCc2cccnc21` (centres unmarked) the figure was 1720 nM. Regarding `O=C1c2ccccc2C(=O)N1CCCn1c2ccccc2c2ccnc(CN(CCCN3CCNCC3)[C@H]3CCCc4cccnc43)c21`, the IC50 was found to be 44 nM. Regarding `NCCCn1c2ccccc2c2ccnc(CN(CCCN3CCNC(=O)C3)[C@H]3CCCc4cccnc43)c21`, the IC50 is 30 nM. On the same count and under the same terms, with `CN(Cc1nccc2c3ccccc3n(CCCCN)c12)[C@H]1CCCc2cccnc21` the figure was 3370 nM; with `CC(C)(C)OC(=O)[C@@H](N)CCCN(Cc1nccc2c1[nH]c1ccccc12)[C@H]1CCCc2cccnc21`, 9580 nM. In the case of `c1cnc2c(c1)CCC[C@@H]2NCc1nccc2c1[nH]c1ccccc12`, the inhibition at 1 µM turned out to be 0%. On to `c1cnc2c(c1)CCC[C@@H]2N(CCCN1CCNCC1)Cc1nccc2c3ccccc3n(CCN3CCOCC3)c12`, for which the IC50 was found to be 24 nM. On the same count and under the same terms, with `NCCCCN(Cc1cc2c(cn1)[nH]c1ccccc12)[C@H]1CCCc2cccnc21` the figure was 100 nM; with `c1cnc2c(c1)CCC[C@@H]2N(CCCN1CCNCC1)Cc1nccc2c1[nH]c1ccccc12`, 87 nM; with `NCCCCN(Cc1nccc2c1[nH]c1ccccc12)[C@@H]1CCCc2cccnc21`, 1340 nM.

As for `Cn1c2ccccc2c2cc(CN(CCCCN)[C@H]3CCCc4cccnc43)ncc21`, the IC50 turned out to be 57 nM. For `O=C(CN(Cc1nccc2c1[nH]c1ccccc12)[C@H]1CCCc2cccnc21)NC1CCNCC1`, the inhibition at 1 µM is 0%. On to `CCNCCCCN(Cc1nccc2c1[nH]c1ccccc12)C1CCCc2cccnc21` (centres unmarked), for which the IC50 came out at 168 nM. Turning to `CS(=O)(=O)NCCCCN(Cc1nccc2c1[nH]c1ccccc12)[C@H]1CCCc2cccnc21`, the inhibition at 1 µM is 0%.

As to `NCCCCN(Cc1cc2c3ccccc3n(CC(=O)O)c2cn1)[C@H]1CCCc2cccnc21`, the IC50 came to 864 nM. Take `NC(=O)CCCN(Cc1nccc2c1[nH]c1ccccc12)[C@H]1CCCc2cccnc21`: the IC50 stood at 1440 nM. For the molecule `NCCCCN(Cc1nccc2c1[nH]c1ccccc12)C1CCCc2cccnc21` (centres unmarked) [drawing 654], the IC50 was determined as 142 nM. On to `c1cnc2c(c1)CCCC2N(CCNC1=NCCN1)Cc1nccc2c1[nH]c1ccccc12` (centres unmarked), for which the inhibition at 1 µM worked out at 0%. As to `CS(=O)(=O)N1CCN(CCN(Cc2nccc3c2[nH]c2ccccc23)C2CCCc3cccnc32)CC1` (centres unmarked), the IC50 came out at 10000 nM. Regarding `COCCn1c2ccccc2c2ccnc(CN(CCCCN)[C@H]3CCCc4cccnc43)c21`, the IC50 amounted to 20 nM.

Turning to `NCCCCN(Cc1nccc2c1[nH]c1ccccc12)[C@H]1CCCc2cccnc21`, the half-inhibitory concentration (IC50) worked out at 30 nM.

Take `CC(C)(C)OC(=O)Cn1c2ccccc2c2cc(CN(CCCCN)[C@H]3CCCc4cccnc43)ncc21`: the IC50 amounted to 949 nM. On the same count and under the same terms, under `O=C(Cn1c2ccccc2c2ccnc(CN(CCCCNCc3ccccn3)[C@H]3CCCc4cccnc43)c21)N1CCOCC1` stands 8650 nM. Same read-out and setting: under `NCCCCN(Cc1nccc2c3ccccc3n(Cc3ccncc3)c12)[C@H]1CCCc2cccnc21` stands 120 nM. Take `CCNC(=O)NCCCCN(Cc1nccc2c1[nH]c1ccccc12)[C@H]1CCCc2cccnc21`: the inhibition at 1 µM came out at 0%.

As to `NCCCCN(Cc1nccc2c3ccccc3n(CC(=O)N3CCC(O)CC3)c12)[C@H]1CCCc2cccnc21`, the IC50 stood at 212 nM. For the molecule `O=C(Cn1c2ccccc2c2ccnc(CN(C(=O)CCN3CCNCC3)[C@H]3CCCc4cccnc43)c21)N1CCOCC1`, the inhibition at 1 µM was determined as 0%. For the molecule `O=C(Cn1c2ccccc2c2ccnc(CN(CCCN3CCNCC3)[C@H]3CCCc4cccnc43)c21)N1CCCCC1`, the IC50 is 405 nM. Consider `NCCCCN(Cc1nccc2c3ccccc3n(CC(=O)N3CC[S+]([O-])CC3)c12)[C@H]1CCCc2cccnc21`, for which the IC50 was 61 nM.

`c1cnc(NCCCCN(Cc2nccc3c2[nH]c2ccccc23)[C@H]2CCCc3cccnc32)nc1`: the inhibition at 1 µM amounted to 0%. Same read-out and setting: with `NCCCCN(Cc1cc2c3ccccc3n(CC(=O)N3CCOCC3)c2cn1)[C@H]1CCCc2cccnc21` the figure was 0%. Regarding `Cn1c2ccccc2c2ccnc(CN(CCCCN)C3CCCc4cccnc43)c21` (centres unmarked), the IC50 amounted to 10 nM. Same read-out and setting: with `N[C@H]1CC[C@H](CN(Cc2nccc3c4ccccc4n(CC(=O)N4CCOCC4)c23)[C@H]2CCCc3cccnc32)CC1` the figure was 2150 nM. For the molecule `C#CCn1c2ccccc2c2ccnc(CN(CCCCN)[C@H]3CCCc4cccnc43)c21`, the IC50 was 9 nM.

On to `CN1CCN(C(=O)Cn2c3ccccc3c3ccnc(CN(CCCCN)[C@H]4CCCc5cccnc54)c32)CC1` [drawing 725], for which the IC50 was 30 nM. Still for that read-out and setting: under `c1cnc2c(c1)CCC[C@@H]2N(CCCN1CCNCC1)Cc1nccc2c3ccccc3n(CCC3CCOCC3)c12` stands 1 nM; under `NCCCCN(Cc1cc2c(cn1)[nH]c1ccccc12)[C@@H]1CCCc2cccnc21`, 1180 nM; under `NCCCCN(Cc1nccc2c3ccccc3n(Cc3ccccn3)c12)[C@H]1CCCc2cccnc21`, 31 nM. For `CC(C)CN(CCCCN(Cc1nccc2c1[nH]c1ccccc12)[C@H]1CCCc2cccnc21)CC(C)C`, the inhibition at 1 µM worked out at 23%.

For `CCOC(=O)Cn1c2ccccc2c2ccnc(CN(CCCCN)[C@H]3CCCc4cccnc43)c21`, the IC50 came to 15 nM. Same read-out and setting: with `CC(C)(C)OC(=O)Cn1c2ccccc2c2ccnc(CN[C@H]3CCCc4cccnc43)c21` the figure was 2810 nM.

On to `NCCCCN(Cc1nccc2c3ccccc3n(CCN3CCNCC3)c12)[C@H]1CCCc2cccnc21` [drawing 754], for which the IC50 turned out to be 63 nM. Turning to `CC(C)CN(Cc1nccc2c3ccccc3n(CCCN)c12)[C@H]1CCCc2cccnc21`, the inhibition at 1 µM worked out at 0%. In the case of `O=C(Cn1c2ccccc2c2ccnc(CN(CCCN3CCNCC3)[C@H]3CCCc4cccnc43)c21)N1CCOCC1`, the IC50 stood at 44 nM. With `NCCCCN(Cc1nccc2c3ccccc3n(CCCN)c12)[C@H]1CCCc2cccnc21` [drawing 748], the IC50 worked out at 21 nM. Still for that read-out and setting: with `CN(Cc1nccc2c3ccccc3n(CCCN)c12)[C@H]1CCCc2cccnc21` the figure was 1050 nM; with `CC(C)(C)C(=O)N1CCN(CCCN(Cc2nccc3c2[nH]c2ccccc23)C2CCCc3cccnc32)CC1` (centres unmarked), 1930 nM. Take `OCCCCN(Cc1nccc2c1[nH]c1ccccc12)[C@H]1CCCc2cccnc21`: the inhibition at 1 µM is 0%. Still for that read-out and setting: with `c1cnc2c(c1)CCCC2N(CCCN1CCOCC1)Cc1nccc2c1[nH]c1ccccc12` (centres unmarked) the figure was 20%. For `c1ccc(N2CCNCC2)c(CN(Cc2nccc3c2[nH]c2ccccc23)[C@H]2CCCc3cccnc32)c1`, the IC50 is 3730 nM. As to `CN(Cc1nccc2c3ccccc3n(CCN3C(=O)c4ccccc4C3=O)c12)[C@H]1CCCc2cccnc21`, the IC50 came out at 329 nM. Regarding `NCCCCN(Cc1nccc2c3ccccc3n(CC(=O)N3CCNCC3)c12)[C@H]1CCCc2cccnc21`, the IC50 stood at 663 nM. As to `c1ccc(Cn2c3ccccc3c3ccnc(CN(CCCN4CCNCC4)[C@H]4CCCc5cccnc54)c32)nc1`, the IC50 came to 176 nM. Still for that read-out and setting: under `CCNCCCCN(Cc1nccc2c1[nH]c1ccccc12)[C@H]1CCCc2cccnc21` stands 699 nM; under `NCCCCN(Cc1nccc2c3ccccc3n(CC(=O)N3CCC(N)CC3)c12)[C@H]1CCCc2cccnc21`, 4390 nM. With `CS(=O)(=O)N1CCN(CCCN(Cc2nccc3c2[nH]c2ccccc23)C2CCCc3cccnc32)CC1` (centres unmarked), the inhibition at 1 µM amounted to 27%. For the molecule `CC(C)CN(Cc1nccc2c3ccccc3n(CCCN3C(=O)c4ccccc4C3=O)c12)[C@H]1CCCc2cccnc21`, the IC50 came to 6650 nM. The same measure, in the same setting: with `NCCCCN(Cc1nccc2c3ccccc3n(CC(=O)NC3CCNCC3)c12)[C@H]1CCCc2cccnc21` the figure was 110 nM. Take `NCCCCN(C(=O)c1nccc2c1[nH]c1ccccc12)C1CCCc2cccnc21` (centres unmarked): the inhibition at 1 µM came out at 0%. Consider `O=C(Cn1c2ccccc2c2ccnc(CN(CCCCNCc3cccnc3)[C@H]3CCCc4cccnc43)c21)N1CCOCC1`, for which the IC50 amounted to 1400 nM. Still for that read-out and setting: with `NCCCCN(Cc1ccccn1)Cc1nccc2c1[nH]c1ccccc12` the figure was 1970 nM; with `NCCCCN(Cc1nccc2c3ccccc3n(CCCN3CCNC(=O)C3)c12)[C@H]1CCCc2cccnc21`, 4 nM. `O=C(O)Cn1c2ccccc2c2ccnc(CN(CCCN3CCNCC3)[C@H]3CCCc4cccnc43)c21` [drawing 753]: the IC50 turned out to be 135 nM.

Values taken from US9314468B2, “Chemokine receptor modulators” (Altiris Therapeutics, Inc., priority 2008, dated 2016).
